For one compound, EC50 and IC50 results are on record in ChEMBL document CHEMBL6134839, “Novel 15-lipoxygenase-1 inhibitor protects cells from RSL3-induced cell death” (Eur J Med Chem, 2025).

A short description of assay [1]: Inhibition of RSL3-induced lipid peroxidation in human HEK293 cells incubated for 3 hrs by C11-BODIPY581/591 probe based flow cytometry analysis. It is filed as functional, cell-based. Background: Flow cytometry measures light scatter and fluorescence of single cells or particles in a stream.
For assay [2], the target named is T1, Polyunsaturated fatty acid lipoxygenase ALOX15 (Homo sapiens, UniProt P16050).
T1 sequence (P16050 whole entry): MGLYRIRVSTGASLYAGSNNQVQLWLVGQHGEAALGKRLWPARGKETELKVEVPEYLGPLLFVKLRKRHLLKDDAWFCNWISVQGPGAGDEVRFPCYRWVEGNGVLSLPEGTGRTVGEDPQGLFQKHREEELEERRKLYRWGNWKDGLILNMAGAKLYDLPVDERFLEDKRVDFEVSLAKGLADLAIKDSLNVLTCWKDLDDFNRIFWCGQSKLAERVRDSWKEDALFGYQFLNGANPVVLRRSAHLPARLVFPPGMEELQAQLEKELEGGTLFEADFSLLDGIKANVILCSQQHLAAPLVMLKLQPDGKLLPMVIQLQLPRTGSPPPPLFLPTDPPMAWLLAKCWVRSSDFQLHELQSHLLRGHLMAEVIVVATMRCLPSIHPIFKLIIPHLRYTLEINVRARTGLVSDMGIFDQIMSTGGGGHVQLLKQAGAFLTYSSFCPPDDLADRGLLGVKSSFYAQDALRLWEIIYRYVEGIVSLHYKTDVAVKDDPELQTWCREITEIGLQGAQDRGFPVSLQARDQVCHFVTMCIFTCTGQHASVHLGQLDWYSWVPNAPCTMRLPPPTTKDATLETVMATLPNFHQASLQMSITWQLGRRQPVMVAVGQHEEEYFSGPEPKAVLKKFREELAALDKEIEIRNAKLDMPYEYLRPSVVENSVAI
The assay can be described thus: Inhibition of human 15-LOX-1 using linoleic acid as substrate preincubated for 10 mins followed by substrate addition.

Regarding `c1ccc2c(c1)SCc1c-2[nH]c2ccccc12`, in assay [1], a half-maximal response (EC50) required 1200 nM. Moreover, half-maximal inhibition in assay [2] (IC50) was put at 10 µM.

The term EC50 denotes the concentration at which the effect is half-maximal. The low end stands for a more potent agent, the high end for a less potent agent. One may read the IC50 as the midpoint of a concentration-inhibition curve. A higher IC50 goes with weaker potency in that assay.
